Data from patent publication US6096725A, “Methods of using αGal oligosaccharides as immune system targeting agents” (Neose Technologies, Inc., priority 1997, dated 2000).
Read-outs that look alike come from different tables or passages of the source.

Columns and labels:
[1] = Pharmacokinetics after 15 minute intravenous bolus in baboons; assay type: in vivo, baboon; settings: for clearance / half-life / Vd: baboon, plasma, iv, 500 umol/kg, 0.5 mMol/Kg 15 minute i.v. bolus; for Vd: read-out: Volume of Distribution
Procedure: The pharmacokinetics of the αGal trisaccharide compositions and the αGal pentasaccharide compositions were determined by delivering to one baboon by 15 minute intravenous bolus, 0.5 mMol/Kg of one oligosaccharide and 48 hours later, delivering 0.5 mmol/Kg of the second oligosaccharide, and for a second baboon, delivering the oligosaccharides according to the same procedure, but in the reverse order.
(§1) Three Baboons were outfitted with indwelling venous and arterial catheters to the femoral vessels, and held in place with the aid of a jacket. Oligosaccharides were administered through the catheter in a 15 minute continuous infusion.
The clearance is used to calculate the infusion rate needed to maintain a desired drug concentration. The half-life describes how quickly concentrations diminish with time. Mathematical formulations known in the art were applied to estimate the pharmacokinetic parameters of the αGal trisaccharide and αGal pentasaccharide. […] Compared to other drugs, the volumes of distribution of these oligosaccharides are low, less than the extravascular water volume (<400 mL/kg). The clearance is typical of compounds eliminated by GFR (glomerular filtration rate).

[2] = system: hyperacute rejection (HAR) of porcine heart xenografted to the neck of a baboon; assay type: in vivo; settings: for Onset of IgG, IgM and complement (C3) deposition at the endothelial surface: immunofluorescence
From the text: Primate model for testing and application of αGal oligosaccharides and dosages thereof. Due to the many similarities between human and baboon immune systems (Neubauer et al., 1981, J. Immunogenetics, 8:433-442; Garver et al., 1980, Cytogenetics & Cell Genetics, 27:238-245; Brodsky et al., 1982, Immunogenetics, 155:151-166; Hammer, C., in Hardy, M. A. (ed.), Xenograft 25, 115-123 (Elsevier, N.Y., 1989); Stark, J. H., et al., Transplantation, 30 52(6):1072-1078 (December 1991); Hammer, C., in Cooper, D. K. C., et al. (eds.), Xenotransplantation, 429-438 (Springer-Verlag 1991)), and because of the large size of baboons, these animals are convenient experimental model recipients of pig organs. These non-human primates also express anti-pig antibodies, and reject pig organs hyperacutely (Lexer et al., 1986, J. Heart Transplant, 4:411-418; Ye, Y., Cooper, D. K. C., in Cooper, D. K. C., et al. (eds.), Xenotransplantation,389-393 (Springer-Verlag 1991); Cooper et al., 1991, J. Heart Transplant, 7:238-246, 1988; Platt et al., 1991, Transplantation, 52(2):214-220). A normal porcine heart was transplanted into the neck of a normal baboon. αGal pentasaccharide was infused (i.v.) to establish and maintain blood oligosaccharide levels predicted to inhibit HAR until infusate was exhausted (See Table 2). The ability of i.v. infused αGal pentasaccharide to block hyperacute rejection (HAR) of porcine heart xenografted to the neck of a baboon was determined and blood levels of αGal oligosaccharide, anti-αGal antibodies, and serum or plasma cytotoxicity toward pig kidney and mouse endothelial cells was monitored and correlated with the onset of HAR.
The heart was excised from the pig donor and transplanted in the neck of the baboon recipient using techniques essentially as described by Cooper et al., 1993, Transplantation, 56:769-777.
The two xenotransplant baboons were outfitted with an indwelling catheter to the femoral vein to infuse compound and a catheter to the femoral artery for blood sampling. Following the transplant procedure, but just prior to providing circulatory access to the xenograft, the oligosaccharide was administered by i.v. pump through the catheter in a 15 min loading dose, followed by continuous 4 hour infusion to achieve 2.5 mM blood concentration (as determined by calculations presented in Table 2). […] Blood specimens collected for plasma were immediately centrifuged and the plasma withdrawn and stored frozen at -20° C. Blood specimens collected for serum were clotted at 4° C. overnight and the withdrawn serum frozen at -20° C. The αGal pentasaccharide was prepared according to the enzymatic methods set forth in example 6.2 and stored as a dry, white, solid powder. The oligosaccharide was dissolved in 250 mL sterile infusion grade saline to a concentration of 0.154 g/mL, or 177 mM. Induction anesthesia was with ketamine hydrochloride 5 mg/kg/body weight in and 0.5 mg/kg of xylazine iv. Intravenous fluid of approximately 20 ml/kg body weight was given during the course of the operative procedure through either a peripheral or central vein. Atropine 0.5 mg/kg was given iv. The larynx was sprayed with 2% lidocaine. Endotracheal intubation was carried out. The endotracheal tube was taped to the maxilla. The pig or baboon was ventilated with a Harvard positive pressure ventilator. Anesthesia was maintained with nitrous oxide 2 L/min and oxygen 1 L/min and 0.2%-1.2% halothane, at a respiratory rate of approximately 10 to 20 breaths per minute depending on the size of the animal. Tidal volume (approximately 20-24 ml/kg) was also adjusted to suit the size of the animal, and the ventilatory pressure was adjusted to approximately […]. Blood gases were checked, and ventilation adjusted as necessary. Arterial pressure was monitored in the recipient baboon by intermittent automatic cuff recordings. […]

[3] = system: anti-αGal antibody; assay: In vivo blood serum analysis: serum anti-αGal antibody neutralizing capacity in baboons; design: species or system baboon; settings: monovalent oligosaccharide
From the text: Pharmokinetics of αGal trisaccharides and αGal pentasaccharides in baboons. This example presents a study of the pharmokinetic profile and serum anti-αGal antibody neutralizing capacity in baboons of αGal trisaccharides and αGal pentasaccharides and previews the compounds' suitability for use in the prevention of hyperacute rejection of porcine organs xenotransplanted into baboons.
as §1

[4] = to attain 0.5 mM steady state serum concentration
[5] = to attain 1.0 mM steady state serum concentration
[6] = to attain 2.0 mM steady state serum concentration

SMILES: CC(=O)N[C@H]1[C@H](O[C@H]2[C@@H](O)[C@@H](CO)O[C@@H](O[C@H]3[C@H](O)[C@@H](O)C(O)O[C@@H]3CO)[C@@H]2O)O[C@H](CO)[C@@H](O[C@@H]2O[C@H](CO)[C@H](O)[C@H](O[C@H]3O[C@H](CO)[C@H](O)[C@H](O)[C@H]3O)[C@H]2O)[C@@H]1O (some centres unmarked) [αGal pentasaccharide, Galα1-3Galβ1-4GlcNAcβ1-3Galβ1-4Glc]
- clearance ([1]; baboon 1003): 2.93 mL/min/kg
- half-life ([1]; baboon 1003): 47.3 min
- Vd ([1]; baboon 1003): 0.199 L/kg
- clearance ([1]; baboon 1015): 3.97 mL/min/kg
- half-life ([1]; baboon 1015): 40.2 min
- Vd ([1]; baboon 1015): 0.23 L/kg
- Calculated continuous infusion, total amount [1, 4]: 1.44 Kg/14 days
- Calculated loading dose [1, 4]: 4.12 g/20 Kg baboon
- Calculated loading dose (bolus or 15 min infusion) [1, 4]: 206 mg/kg
- Calculated continuous infusion, total amount [1, 5]: 2.88 Kg/14 days
- Calculated loading dose [1, 5]: 8.24 g/20 Kg baboon
- Calculated loading dose (bolus or 15 min infusion) [1, 5]: 412 mg/kg
- Calculated continuous infusion, total amount [1, 6]: 5.74 Kg/14 days
- Calculated loading dose [1, 6]: 16.48 g/20 Kg baboon
- Calculated loading dose (bolus or 15 min infusion) [1, 6]: 824 mg/kg
- Onset of IgG, IgM and complement (C3) deposition at the endothelial surface ([2]; first baboon): 1.5 h
- Alteration in blood chemistry ([2]; in vivo): increase in creatinine phosphokinase
- Hematology results ([2]; in vivo): unremarkable
- Xenograft histology ([2]; initial 3 hours of infusion, data not shown): Essentially normal histology
- Onset of IgG, IgM and complement (C3) deposition at the endothelial surface ([2]; second baboon): 3 h
- Xenograft heart beat during infusion ([2]; two baboons, four hour infusion, result in words): an even beat was maintained for the duration of the four hour oligosaccharide infusion
- Time of xenograft excision after cessation of the 4 hour infusion ([2]; two baboons, untreated pig hearts rejected in 5-10 minutes): more than 1 hour
- Minimal serum (circulating) concentration required to inhibit hyperacute rejection / be efficacious in vivo [3]: ≥ 1 mM
